# In patent US12570661B2, “Isoform-specific aldehyde dehydrogenase inhibitors” (The Board of Trustees of the Leland Stanford Junior …, priority 2020, dated 2026):
# Experiments:
# ALDH2 = target: T1, ALDH2 (Homo sapiens, UniProt P05091); experiment: ALDH2 enzyme kinetics assay; assay type: biochemical; conditions: 50-μM compound concentration
# T1 construct: made in house
# T1 sequence (P05091 18-517): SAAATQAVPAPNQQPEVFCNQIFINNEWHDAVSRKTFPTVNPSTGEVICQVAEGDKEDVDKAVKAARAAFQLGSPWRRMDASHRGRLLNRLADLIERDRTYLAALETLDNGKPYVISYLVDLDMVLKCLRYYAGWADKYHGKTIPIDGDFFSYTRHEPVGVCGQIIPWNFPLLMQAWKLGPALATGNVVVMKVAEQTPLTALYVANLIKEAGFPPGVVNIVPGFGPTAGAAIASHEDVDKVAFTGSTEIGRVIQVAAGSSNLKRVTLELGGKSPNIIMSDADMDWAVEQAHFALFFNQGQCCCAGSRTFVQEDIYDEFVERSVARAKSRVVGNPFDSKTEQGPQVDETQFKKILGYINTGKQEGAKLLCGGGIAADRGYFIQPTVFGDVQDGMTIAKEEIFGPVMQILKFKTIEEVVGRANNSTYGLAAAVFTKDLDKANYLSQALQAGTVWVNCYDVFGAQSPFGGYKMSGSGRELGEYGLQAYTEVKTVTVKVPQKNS
# Experimental: Cloning, expression, and purification of human recombinant ALDH1A1, ALDH1A3, ALDH2, ALDH3A1, ALDH3A2, ALDH4A1, ALDH5A1 and ALDH7A1 isozymes were conducted as described previously (Chen, C. H. et al. (2015) Proc. Natl. Acad. Sci. U.S.A. 112, 3074-3079). Human ALDH1A2 (Origene, SC109995) and ALDH1B1 (T. Hurley, Indiana University) plasmids were cloned into the pET-15b expression vector (Novagen, 69661-3) containing an N-terminal hexahistidine tag. The mitochondria-targeting sequence of ALDH1B1 was also removed. […] The protein concentration for each fraction was measured (500 μL elution volume was collected as one fraction and was immediately mixed with 500 μL glycerol. The protein concentration for each fraction was measured (600 nm Protein Assay Reagent; Thermo Fisher Scientific), and protein-containing fractions were diluted with an equal volume of glycerol and stored at −80° C. Samples from each step were also collected for SDS-PAGE gel analysis. For ALDH1B1 protein co-expression with chaperones, pET-15b-ALDH1B1 and GroEL/GroES (Addgene, plasmid pBB541) plasmids were co-transformed into competent BL21 E. coli cells, which were subsequently grown in 1 L of Luria-Bertani medium containing 100 μg/mL ampicillin and 50 μg/mL spectinomycin at 37° C. […]
# Hedgehog (Hh) signaling = experiment: Hh pathway assay (Shh-LIGHT2 Gli-dependent luciferase reporter, NIH-3T3); assay type: cell-based, murine; conditions: Mus musculus; read-out: IC50 in Hh pathway assays
# Experimental: NIH-3T3 cells stably transfected with Gli-dependent firefly luciferase reporter (Shh-LIGHT2 cells (Taipale, J. et al. (2000) Nature 406, 1005-1009) were seeded into 96-well plates at a density of 2×10^4 cells/well and cultured for 24 h. The cells were then cultured in low-serum (0.5% CS) media containing 100 U/mL penicillin, 100 μg/mL streptomycin, and 200 nM Smoothened agonist (SAG) (Chen, J. K. et al. (2002) Proc. Natl. Acad. Sci. U.S.A. 99, 14071-14076; Frank-Kamenetsky, M. et al. (2002) J. Biol. 1, 10) for 30 h. CellTiter AQueous One (20 μL/well; Promega) was added to the cells and incubated for 30 min at 37° C., and cell viabilities were measured as the 490-nm absorbance of the culture media using a Spectramax M2e microplate reader (Molecular Devices). The cells were then washed with PBS and incubated with Bright-Glo reagent (100 μL/well; Promega) for 5 min at room temperature. The resulting chemiluminescence was measured on a Veritas microplate luminometer (Turner BioSystems) and normalized to the CellTiter signal. The normalized luciferase activities for each compound treatment regimen were normalized further to the DMSO control, and dose-responsive curves were generated using Prism software (GraphPad).
smiles,measurement,setting,value
COc1ccccc1-n1cc(-c2ccc(-c3ccccc3)cc2)[n+]2c1CCCCC2 [Imidazolium 2],inhibition of ALDH2 activity,ALDH2,neither imidazolium 1 or 2 could inhibit ALDH2 activity
same,IC50,Hedgehog (Hh) signaling,~700 nM
